Laboratory results reported in patent US20260035339A1, “TETRAHYDRONAPHTHALENE DERIVATIVE” (ATRANSEN PHARMA LTD., priority 2022, published 2026).

Columns and labels:
[1] = target: T1, human LAT2 (Homo sapiens, UniProt Q9UHI5); experiment: [14C]L-alanine uptake inhibition test using human-LAT2 stably expressing HEK293 cell line; assay type: cell-based
T1 construct: having full-length cDNA of human LAT1 or LAT2 inserted under a promoter of CMV; expressed in transfected cells
T1 sequence (Q9UHI5 1-535): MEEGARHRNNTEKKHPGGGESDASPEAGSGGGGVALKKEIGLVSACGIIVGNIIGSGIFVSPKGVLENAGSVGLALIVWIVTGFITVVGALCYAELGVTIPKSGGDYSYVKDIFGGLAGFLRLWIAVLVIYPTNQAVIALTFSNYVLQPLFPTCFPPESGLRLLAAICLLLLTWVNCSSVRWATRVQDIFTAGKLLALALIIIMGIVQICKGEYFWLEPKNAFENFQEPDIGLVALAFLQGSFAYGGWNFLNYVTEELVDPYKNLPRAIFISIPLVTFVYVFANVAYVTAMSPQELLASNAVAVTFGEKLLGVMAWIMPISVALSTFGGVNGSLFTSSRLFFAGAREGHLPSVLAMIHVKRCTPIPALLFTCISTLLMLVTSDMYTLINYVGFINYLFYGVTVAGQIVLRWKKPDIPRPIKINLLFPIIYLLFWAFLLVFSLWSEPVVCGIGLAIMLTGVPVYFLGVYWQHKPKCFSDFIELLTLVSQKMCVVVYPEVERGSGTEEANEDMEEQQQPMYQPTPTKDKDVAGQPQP
T1 sequence (P08195 1-529 partner): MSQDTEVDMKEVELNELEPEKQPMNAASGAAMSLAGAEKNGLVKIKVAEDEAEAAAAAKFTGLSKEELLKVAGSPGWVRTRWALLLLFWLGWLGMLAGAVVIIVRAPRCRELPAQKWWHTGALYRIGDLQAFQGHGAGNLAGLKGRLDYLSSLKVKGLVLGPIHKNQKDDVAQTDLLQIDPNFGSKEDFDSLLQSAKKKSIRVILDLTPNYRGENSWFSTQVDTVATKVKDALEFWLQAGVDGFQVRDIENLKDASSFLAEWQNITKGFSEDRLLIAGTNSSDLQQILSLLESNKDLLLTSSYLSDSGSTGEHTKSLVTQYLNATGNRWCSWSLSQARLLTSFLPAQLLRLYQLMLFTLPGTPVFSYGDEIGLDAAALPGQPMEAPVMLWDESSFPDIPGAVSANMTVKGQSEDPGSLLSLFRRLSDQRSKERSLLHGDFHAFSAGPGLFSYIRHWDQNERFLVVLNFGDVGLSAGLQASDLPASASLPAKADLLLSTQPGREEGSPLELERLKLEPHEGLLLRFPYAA
Excerpt: HEK293 cells stably expressing human LAT1 and LAT2 were produced, respectively.
A shuttle vector DNA (LAT1: pcDNA3.1(+) -hLAT1, LAT2: pcDNA3.1(+) -hLAT2; expression vector pcDNA3.1 (+) was produced by Invitrogen Corp.) having ampicillin and neomycin resistance markers and having full-length cDNA of human LAT1 or LAT2 inserted under a promoter of CMV (cytomegalovirus) was constructed. This vector was transfected into the HEK293 cells by a method using Lipofectamine (registered trademark) 2000 (Invitrogen Corp.) according to the manufacturer's instructions. […]
[^14C]L-alanine uptake inhibition using the compound of Example 1-1 was performed using the human-LAT2 stably expressing HEK293 cell line. In the same manner as in the [^14C]L-leucine uptake inhibition experiment in the human-LAT1 stably expressing HEK293 cell line, the human-LAT2 stably expressing HEK293 cell line was seeded in a 24-well plate at 1×10^5 Cell/Well, and after 48 hours, 1 μM of [^14C]L-alanine was taken up in Na^+-free HBSS in the presence of the compound (0.1, 1.0, 10, 0 μM in each case), which is a racemic form, of Example 1-1 for 1 minute, then the uptake amount of [^14C]L-alanine and the protein amount of the cell lysate were measured, and the uptake amount of [^14C]L-alanine per 1 mg of protein in the cell per minute was determined.

[2] = target: human LAT1 (Homo sapiens, UniProt Q01650); experiment: [14C]L-leucine uptake inhibition test using human-LAT1 stably expressing HEK293 cell line; assay type: cell-based; set-up: having full-length cDNA of human LAT1 or LAT2 inserted under a promoter of CMV; expressed in transfected cells; key to Assay Data: degree of [14C]L-leucine uptake inhibition compared with BCH: a test compound having a higher inhibitory effect than BCH is denoted by A; a test compound having the same inhibitory effect as BCH is denoted by B; a test compound having a lower inhibitory effect than BCH is denoted by C
Method in brief: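 HEK293 cells stably expressing human LAT1, preincubated 10 min in Na^+-free HBSS, then exposed 1 min to 1 μM [14C]L-leucine with racemic compound (0.1, 1.0, 10, 0 μM). Lysate radioactivity counted by scintillation and normalized to protein as uptake per mg protein per minute; graded against BCH.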

Sequence of human LAT1 (Q01650 whole entry, one chain of several): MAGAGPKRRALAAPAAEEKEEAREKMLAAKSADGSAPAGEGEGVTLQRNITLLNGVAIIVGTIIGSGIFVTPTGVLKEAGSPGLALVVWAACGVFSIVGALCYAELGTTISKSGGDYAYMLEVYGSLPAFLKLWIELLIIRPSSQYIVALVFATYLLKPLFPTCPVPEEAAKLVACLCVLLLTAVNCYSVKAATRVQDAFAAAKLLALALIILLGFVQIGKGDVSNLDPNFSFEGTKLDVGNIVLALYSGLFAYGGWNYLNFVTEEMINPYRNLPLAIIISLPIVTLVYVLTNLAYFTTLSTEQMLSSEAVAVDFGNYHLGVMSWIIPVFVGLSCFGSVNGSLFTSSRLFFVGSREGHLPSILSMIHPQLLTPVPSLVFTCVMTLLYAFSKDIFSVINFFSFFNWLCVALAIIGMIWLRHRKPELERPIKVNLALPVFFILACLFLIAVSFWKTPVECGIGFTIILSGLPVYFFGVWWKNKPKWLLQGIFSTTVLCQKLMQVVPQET

NC1(C(=O)O)CCc2ccc(Oc3ccc4ccccc4c3)cc2C1 (stereo not drawn) [Example 1-1, 2-carboxy-7-(naphthalene-2-yloxy)-1,2,3,4-tetrahydronaphthalene-2-aminium chloride]
inhibitory action on LAT2 alanine uptake compared with LAT1 leucine uptake inhibition ([1]; LAT2 versus LAT1 stably expressing HEK293 cell line): weaker inhibitory action
IC50 ([1]; racemic form, 1 μM [14C]L-alanine, 1 minute, Na+-free HBSS, read-out: 50% suppression concentration, [14C]L-alanine uptake): ~1000 nM
suppression rate of labeled leucine uptake ([2]; 0.1 μM of the compound (racemic form)): about 70%
Assay Data: degree of [14C]L-leucine uptake inhibition compared with BCH ([2]; compound (racemic form) and BCH at 0.1, 1.0, 10 μM, 1 μM [14C]L-leucine, 1 minute, Na+-free HBSS): A
IC50 ([2]; racemic form, 1 μM [14C]L-leucine, 1 minute, read-out: 50% suppression concentration (racemic form), [14C]L-leucine uptake): ≤ 100 nM
LAT1 inhibitory effect, compounds singled out (in words) ([2]; same test as Table 1): particularly remarkable effects
